pIC50, pKi: −log10 of the molar value.
Legend:
Homo sapiens = organism: Homo sapiens; assay: Selectivity index, ratio of IC50 for human MAO-B to IC50 for human MAO-A
[1] = biological target: T1, Amine oxidase [flavin-containing] A (Homo sapiens, UniProt P21397); assay: Inhibition of human MAO-A at 10^-4 to 10^-3 M using tyramine hydrochloride as substrate after 30 mins by Amplex Red reagent based horseradish peroxidase enzyme-coupled fluorescence assay relative to control; conditions: 0.5 h
T1 sequence (P21397 whole entry): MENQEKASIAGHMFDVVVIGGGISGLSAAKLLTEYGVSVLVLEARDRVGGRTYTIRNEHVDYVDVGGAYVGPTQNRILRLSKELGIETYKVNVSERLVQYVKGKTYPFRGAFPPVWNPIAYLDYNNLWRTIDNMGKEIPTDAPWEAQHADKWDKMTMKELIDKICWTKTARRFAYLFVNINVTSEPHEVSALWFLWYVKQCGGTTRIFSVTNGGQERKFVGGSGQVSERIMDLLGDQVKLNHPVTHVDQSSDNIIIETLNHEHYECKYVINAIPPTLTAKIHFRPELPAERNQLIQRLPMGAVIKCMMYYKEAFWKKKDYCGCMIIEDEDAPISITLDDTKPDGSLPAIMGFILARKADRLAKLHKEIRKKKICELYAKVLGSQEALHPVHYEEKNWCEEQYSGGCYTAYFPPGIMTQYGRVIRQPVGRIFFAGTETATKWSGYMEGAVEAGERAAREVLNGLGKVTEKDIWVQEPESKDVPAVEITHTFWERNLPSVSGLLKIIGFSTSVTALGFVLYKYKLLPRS

[2] = biological target: T2, Amine oxidase [flavin-containing] B (Homo sapiens, UniProt P27338); assay: Inhibition of human MAO-B using tyramine hydrochloride as substrate after 30 mins by Amplex Red reagent based horseradish peroxidase enzyme-coupled fluorescence assay
T2 sequence (P27338 whole entry): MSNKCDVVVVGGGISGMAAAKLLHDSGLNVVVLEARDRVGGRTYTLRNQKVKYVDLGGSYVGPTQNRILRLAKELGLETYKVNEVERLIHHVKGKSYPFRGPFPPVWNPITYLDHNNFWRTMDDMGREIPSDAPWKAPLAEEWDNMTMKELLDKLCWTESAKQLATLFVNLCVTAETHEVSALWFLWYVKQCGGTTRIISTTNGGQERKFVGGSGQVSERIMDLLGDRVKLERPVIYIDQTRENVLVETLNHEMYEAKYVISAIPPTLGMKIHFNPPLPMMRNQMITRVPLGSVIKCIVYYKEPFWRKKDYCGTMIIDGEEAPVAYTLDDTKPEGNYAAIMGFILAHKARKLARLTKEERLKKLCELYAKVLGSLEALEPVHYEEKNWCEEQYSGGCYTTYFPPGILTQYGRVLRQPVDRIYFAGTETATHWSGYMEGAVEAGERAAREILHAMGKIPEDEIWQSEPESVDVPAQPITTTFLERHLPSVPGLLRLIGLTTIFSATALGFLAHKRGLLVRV

[3] = biological target: T1, Amine oxidase [flavin-containing] A; assay: Inhibition of human MAO-A using tyramine hydrochloride as substrate after 30 mins by Amplex Red reagent based horseradish peroxidase enzyme-coupled fluorescence assay
Salmonella typhimurium [4] = assay: Genotoxicity in Salmonella typhimurium TA100 assessed as increase in revertant colonies at 1.25 mg/ml in presence of Sprague-Dawley rat liver S9 fraction by Ames test relative to basal level; format: toxicity, organism-based; conditions: salmonella enterica subsp. enterica serovar typhimurium
Salmonella typhimurium [5] = assay: Genotoxicity in Salmonella typhimurium TA98 assessed as increase in revertant colonies at 0.3125 mg/ml in absence of Sprague-Dawley rat liver S9 fraction by Ames test relative to basal level; format: toxicity, organism-based; conditions: salmonella enterica subsp. enterica serovar typhimurium
Salmonella typhimurium [6] = assay: Genotoxicity in Salmonella typhimurium TA100 assessed as increase in revertant colonies at 0.625 mg/ml in presence of Sprague-Dawley rat liver S9 fraction by Ames test relative to basal level; format: toxicity, organism-based; conditions: salmonella enterica subsp. enterica serovar typhimurium
NIH3T3 = assay: Cytotoxicity against mouse NIH/3T3 cells by MTT assay; format: cell-based
Salmonella typhimurium [7] = assay: Genotoxicity in Salmonella typhimurium TA98 assessed as increase in revertant colonies at 0.156 mg/ml in presence of Sprague-Dawley rat liver S9 fraction by Ames test relative to basal level; format: toxicity, organism-based; conditions: salmonella enterica subsp. enterica serovar typhimurium
Salmonella typhimurium [8] = assay: Genotoxicity in Salmonella typhimurium TA98 assessed as increase in revertant colonies at 1.25 mg/ml in presence of Sprague-Dawley rat liver S9 fraction by Ames test relative to basal level; format: toxicity, organism-based; conditions: salmonella enterica subsp. enterica serovar typhimurium
Salmonella typhimurium [9] = assay: Genotoxicity in Salmonella typhimurium TA100 assessed as increase in revertant colonies at 0.3125 mg/ml in absence of Sprague-Dawley rat liver S9 fraction by Ames test relative to basal level; format: toxicity, organism-based; conditions: salmonella enterica subsp. enterica serovar typhimurium
Salmonella typhimurium [10] = assay: Genotoxicity in Salmonella typhimurium TA98 assessed as increase in revertant colonies at 2.5 mg/ml in absence of Sprague-Dawley rat liver S9 fraction by Ames test relative to basal level; format: toxicity, organism-based; conditions: salmonella enterica subsp. enterica serovar typhimurium
Salmonella typhimurium [11] = assay: Genotoxicity in Salmonella typhimurium TA98 assessed as increase in revertant colonies at 0.625 mg/ml in absence of Sprague-Dawley rat liver S9 fraction by Ames test relative to basal level; format: toxicity, organism-based; conditions: salmonella enterica subsp. enterica serovar typhimurium
Salmonella typhimurium [12] = assay: Genotoxicity in Salmonella typhimurium TA100 assessed as increase in revertant colonies at 5 mg/ml in presence of Sprague-Dawley rat liver S9 fraction by Ames test relative to basal level; format: toxicity, organism-based; conditions: salmonella enterica subsp. enterica serovar typhimurium
[13] = biological target: T1, Amine oxidase [flavin-containing] A; assay: Reversible-competitive inhibition of human MAO-A using varying levels of tyramine as substrate after 30 mins by Lineweaver-Burk plot
Salmonella typhimurium [14] = assay: Genotoxicity in Salmonella typhimurium TA100 assessed as increase in revertant colonies at 0.156 mg/ml in absence of Sprague-Dawley rat liver S9 fraction by Ames test relative to basal level; format: toxicity, organism-based; conditions: salmonella enterica subsp. enterica serovar typhimurium
Salmonella typhimurium [15] = assay: Genotoxicity in Salmonella typhimurium TA98 assessed as increase in revertant colonies at 0.625 mg/ml in presence of Sprague-Dawley rat liver S9 fraction by Ames test relative to basal level; format: toxicity, organism-based; conditions: salmonella enterica subsp. enterica serovar typhimurium
Salmonella typhimurium [16] = assay: Genotoxicity in Salmonella typhimurium TA100 assessed as increase in revertant colonies at 0.156 mg/ml in presence of Sprague-Dawley rat liver S9 fraction by Ames test relative to basal level; format: toxicity, organism-based; conditions: salmonella enterica subsp. enterica serovar typhimurium
Salmonella typhimurium [17] = assay: Genotoxicity in Salmonella typhimurium TA98 assessed as increase in revertant colonies at 2.5 mg/ml in presence of Sprague-Dawley rat liver S9 fraction by Ames test relative to basal level; format: toxicity, organism-based; conditions: salmonella enterica subsp. enterica serovar typhimurium
Salmonella typhimurium [18] = assay: Genotoxicity in Salmonella typhimurium TA100 assessed as increase in revertant colonies at 2.5 mg/ml in presence of Sprague-Dawley rat liver S9 fraction by Ames test relative to basal level; format: toxicity, organism-based; conditions: salmonella enterica subsp. enterica serovar typhimurium
Salmonella typhimurium [19] = assay: Genotoxicity in Salmonella typhimurium TA98 assessed as increase in revertant colonies at 5 mg/ml in absence of Sprague-Dawley rat liver S9 fraction by Ames test relative to basal level; format: toxicity, organism-based; conditions: salmonella enterica subsp. enterica serovar typhimurium
Salmonella typhimurium [20] = assay: Genotoxicity in Salmonella typhimurium TA100 assessed as increase in revertant colonies at 0.625 mg/ml in absence of Sprague-Dawley rat liver S9 fraction by Ames test relative to basal level; format: toxicity, organism-based; conditions: salmonella enterica subsp. enterica serovar typhimurium
Salmonella typhimurium [21] = assay: Genotoxicity in Salmonella typhimurium TA98 assessed as increase in revertant colonies at 0.156 mg/ml in absence of Sprague-Dawley rat liver S9 fraction by Ames test relative to basal level; format: toxicity, organism-based; conditions: salmonella enterica subsp. enterica serovar typhimurium
Salmonella typhimurium [22] = assay: Genotoxicity in Salmonella typhimurium TA98 assessed as increase in revertant colonies at 1.25 mg/ml in absence of Sprague-Dawley rat liver S9 fraction by Ames test relative to basal level; format: toxicity, organism-based; conditions: salmonella enterica subsp. enterica serovar typhimurium
Salmonella typhimurium [23] = assay: Genotoxicity in Salmonella typhimurium TA98 assessed as increase in revertant colonies at 5 mg/ml in presence of Sprague-Dawley rat liver S9 fraction by Ames test relative to basal level; format: toxicity, organism-based; conditions: salmonella enterica subsp. enterica serovar typhimurium
Salmonella typhimurium [24] = assay: Genotoxicity in Salmonella typhimurium TA100 assessed as increase in revertant colonies at 1.25 mg/ml in absence of Sprague-Dawley rat liver S9 fraction by Ames test relative to basal level; format: toxicity, organism-based; conditions: salmonella enterica subsp. enterica serovar typhimurium
Salmonella typhimurium [25] = assay: Genotoxicity in Salmonella typhimurium TA98 assessed as increase in revertant colonies at 0.3125 mg/ml in presence of Sprague-Dawley rat liver S9 fraction by Ames test relative to basal level; format: toxicity, organism-based; conditions: salmonella enterica subsp. enterica serovar typhimurium
Salmonella typhimurium [26] = assay: Genotoxicity in Salmonella typhimurium TA100 assessed as increase in revertant colonies at 0.3125 mg/ml in presence of Sprague-Dawley rat liver S9 fraction by Ames test relative to basal level; format: toxicity, organism-based; conditions: salmonella enterica subsp. enterica serovar typhimurium
Salmonella typhimurium [27] = assay: Genotoxicity in Salmonella typhimurium TA100 assessed as increase in revertant colonies at 5 mg/ml in absence of Sprague-Dawley rat liver S9 fraction by Ames test relative to basal level; format: toxicity, organism-based; conditions: salmonella enterica subsp. enterica serovar typhimurium
[28] = biological target: T2, Amine oxidase [flavin-containing] B; assay: Inhibition of human MAO-B at 10^-4 to 10^-3 M using tyramine hydrochloride as substrate after 30 mins by Amplex Red reagent based horseradish peroxidase enzyme-coupled fluorescence assay relative to control; conditions: 0.5 h
Salmonella typhimurium [29] = assay: Genotoxicity in Salmonella typhimurium TA100 assessed as increase in revertant colonies at 2.5 mg/ml in absence of Sprague-Dawley rat liver S9 fraction by Ames test relative to basal level; format: toxicity, organism-based; conditions: salmonella enterica subsp. enterica serovar typhimurium

| SMILES | Ratio IC50 (Homo sapiens) | inhibition (INH) [1] | pIC50 [2] | pIC50 [3] | fold change (FC) (Salmonella typhimurium [4]) | fold change (FC) (Salmonella typhimurium [5]) | fold change (FC) (Salmonella typhimurium [6]) | pIC50 (NIH3T3) | fold change (FC) (Salmonella typhimurium [7]) | fold change (FC) (Salmonella typhimurium [8]) | fold change (FC) (Salmonella typhimurium [9]) | fold change (FC) (Salmonella typhimurium [10]) | fold change (FC) (Salmonella typhimurium [11]) | fold change (FC) (Salmonella typhimurium [12]) | pKi [13] | fold change (FC) (Salmonella typhimurium [14]) | fold change (FC) (Salmonella typhimurium [15]) | fold change (FC) (Salmonella typhimurium [16]) | fold change (FC) (Salmonella typhimurium [17]) | fold change (FC) (Salmonella typhimurium [18]) | other results |
| --- | --- | --- | --- | --- | --- | --- | --- | --- | --- | --- | --- | --- | --- | --- | --- | --- | --- | --- | --- | --- | --- |
| Cc1ccc(-c2csc(N/N=C/c3ccc(N4CCCC4)cc3)n2)cc1 | > 4.99 | > 50% | < 4.00 | 4.70 | – | – | – | – | – | – | – | – | – | – | – | – | – | – | – | – | – |
| Fc1ccc(-c2csc(N/N=C/c3ccc(N4CCOCC4)cc3)n2)c(F)c1 | 1600 | > 50% | 4.75 | 7.96 | 1.59 | 0.59 | 1.4 | < 3.00 | 1.34 | 2.5 | 1 | 0.3 | 0.5 | 1.08 | 8.36 | 0.61 | 1.34 | 1.08 | 0.45 | 1.14 | fold change (FC) (Salmonella typhimurium [19]): 0.64; fold change (FC) (Salmonella typhimurium [20]): 0.61; fold change (FC) (Salmonella typhimurium [21]): 0.5; fold change (FC) (Salmonella typhimurium [22]): 0.5; fold change (FC) (Salmonella typhimurium [23]): 0.36; fold change (FC) (Salmonella typhimurium [24]): 0.45; fold change (FC) (Salmonella typhimurium [25]): 1.07; fold change (FC) (Salmonella typhimurium [26]): 1.4; fold change (FC) (Salmonella typhimurium [27]): 0.33; inhibition (INH) [28]: > 50%; fold change (FC) (Salmonella typhimurium [29]): 0.22 |
| Brc1ccc(-c2csc(N/N=C/c3ccc(N4CCOCC4)cc3)n2)cc1 | > 6.84 | > 50% | < 4.00 | 4.84 | – | – | – | – | – | – | – | – | – | – | – | – | – | – | – | – | – |
| Fc1ccc(-c2csc(N/N=C/c3ccc(N4CCOCC4)cc3)n2)cc1 | 1210 | > 50% | 4.84 | 7.92 | 0.96 | 2.28 | 1.12 | < 3.00 | 4.38 | 7.86 | 0.56 | 1.45 | 1.59 | 1.28 | 8.18 | 1.11 | 6.97 | 1.07 | 7.95 | 0.96 | fold change (FC) (Salmonella typhimurium [19]): 1.66; fold change (FC) (Salmonella typhimurium [20]): 1.11; fold change (FC) (Salmonella typhimurium [21]): 1.66; fold change (FC) (Salmonella typhimurium [22]): 2; fold change (FC) (Salmonella typhimurium [23]): 5.81; fold change (FC) (Salmonella typhimurium [24]): 0.72; fold change (FC) (Salmonella typhimurium [25]): 6.07; fold change (FC) (Salmonella typhimurium [26]): 1.01; fold change (FC) (Salmonella typhimurium [27]): 1.17; inhibition (INH) [28]: > 50%; fold change (FC) (Salmonella typhimurium [29]): 0.83 |
